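Dose response: 5 concentrations. Exposure: 48 h. Format: 96-well plates. Endpoint: linear interpolation; highest concentration if not reached. GI50 = concentration required for 50% inhibition of growth. TGI: total growth inhibition.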
Key:
Experiment in all cases: NCI-60 cell line screen, 48 h
[1] = tested on: SN12C renal
[2] = tested on: NCI-H460 lung
[3] = tested on: IGROV1 ovarian
[4] = tested on: ACHN renal
[5] = tested on: RXF 393 renal
[6] = tested on: DU-145 prostate
[7] = tested on: NCI-H522 lung
[8] = tested on: MDA-MB-231 breast
[9] = tested on: OVCAR-8 ovarian
[10] = tested on: RPMI-8226 leukemia
[11] = tested on: COLO 205 colon
[12] = tested on: A549 NSCLC
[13] = tested on: A498 renal
[14] = tested on: HT29 colon
[15] = tested on: EKVX NSCLC
[16] = tested on: SNB-19 CNS
[17] = tested on: CCRF-CEM leukemia
[18] = tested on: HS 578T breast
[19] = tested on: OVCAR-3 ovarian
[20] = tested on: SK-MEL-28 melanoma
[21] = tested on: SNB-75 CNS
[22] = tested on: K-562 leukemia
[23] = tested on: HCC-2998 colon
[24] = tested on: LOX IMVI melanoma
[25] = tested on: UACC-62 melanoma
[26] = tested on: 786-0 renal
[27] = tested on: MALME-3M melanoma
[28] = tested on: HOP-62 NSCLC
[29] = tested on: HOP-92 NSCLC
[30] = tested on: SW-620 colon
[31] = tested on: M14 melanoma
[32] = tested on: SK-MEL-5 melanoma
[33] = tested on: PC-3 prostate
[34] = tested on: NCI/ADR-RES ovarian
[35] = tested on: UO-31 renal
[36] = tested on: MCF7 breast
[37] = tested on: SF-268 CNS
[38] = tested on: BT-549 breast
[39] = tested on: TK-10 renal
[40] = tested on: CAKI-1 renal
[41] = tested on: HCT-15 colon
[42] = tested on: SK-OV-3 ovarian
[43] = tested on: OVCAR-4 ovarian
[44] = tested on: OVCAR-5 ovarian
[45] = tested on: MOLT-4 leukemia
[46] = tested on: SK-MEL-2 melanoma
[47] = tested on: MDA-MB-435
[48] = tested on: SF-539 CNS
[49] = tested on: T-47D breast
[50] = tested on: U251 CNS
[51] = tested on: KM12 colon
[52] = tested on: HCT-116 colon
[53] = tested on: SR leukemia
[54] = tested on: UACC-257 melanoma
[55] = tested on: SF-295 CNS
[56] = tested on: HL-60(TB) leukemia

CN1CCN(Cc2ccc(NC(=O)c3cncc(C#Cc4cnn5cccnc45)c3)cc2C(F)(F)F)CC1
GI50 [1]: 2.66 µM
TGI [1]: 10.4 µM
GI50 [2]: 2 µM
TGI [2]: 4.72 µM
GI50 [3]: 2.12 µM
TGI [3]: 7.63 µM
GI50 [4]: 2.29 µM
TGI [4]: 6.84 µM
GI50 [5]: 2.25 µM
TGI [5]: 4.52 µM
GI50 [6]: 2.94 µM
TGI [6]: 9.25 µM
GI50 [7]: 1.71 µM
TGI [7]: 3.51 µM
GI50 [8]: 1.39 µM
TGI [8]: 7.58 µM
GI50 [9]: 2.87 µM
TGI [9]: 10.4 µM
GI50 [10]: 1.83 µM
TGI [10]: 5.1 µM
GI50 [11]: 1.4 µM
TGI [11]: 3.31 µM
GI50 [12]: 2.85 µM
TGI [12]: 9.01 µM
GI50 [13]: 8.19 µM
TGI [13]: 19.8 µM
GI50 [14]: 1.36 µM
TGI [14]: 5.58 µM
GI50 [15]: 5.01 µM
TGI [15]: 16.7 µM
GI50 [16]: 4.05 µM
TGI [16]: 12.6 µM
GI50 [17]: 2.28 µM
TGI [17]: 6.47 µM
GI50 [18]: 2.65 µM
TGI [18]: 10.3 µM
GI50 [19]: 3.88 µM
TGI [19]: 12.9 µM
GI50 [20]: 1.86 µM
TGI [20]: 8.55 µM
GI50 [21]: 2.84 µM
TGI [21]: 12.3 µM
TGI [22]: 1.32 µM
GI50 [23]: 2.4 µM
TGI [23]: 10.8 µM
GI50 [24]: 1.23 µM
TGI [24]: 3.12 µM
GI50 [25]: 2.9 µM
TGI [25]: 13.3 µM
GI50 [26]: 1.83 µM
TGI [26]: 3.3 µM
GI50 [27]: 0.322 µM
TGI [27]: 1.83 µM
GI50 [28]: 2.75 µM
TGI [28]: 9.35 µM
GI50 [29]: 0.376 µM
TGI [29]: 4 µM
GI50 [30]: 1.67 µM
TGI [30]: 5.01 µM
GI50 [31]: 1.06 µM
TGI [31]: 3.34 µM
GI50 [32]: 2.6 µM
TGI [32]: 8.94 µM
GI50 [33]: 3.06 µM
TGI [33]: 13.3 µM
GI50 [34]: 3.49 µM
TGI [34]: 12.7 µM
GI50 [35]: 2.28 µM
TGI [35]: 8.57 µM
GI50 [36]: 1.29 µM
TGI [36]: 4.39 µM
GI50 [37]: 2.54 µM
TGI [37]: 6.33 µM
GI50 [38]: 4.63 µM
TGI [38]: 14.5 µM
GI50 [39]: 3.99 µM
TGI [39]: 9.78 µM
GI50 [40]: 1.8 µM
TGI [40]: 7.53 µM
GI50 [41]: 2.8 µM
TGI [41]: 10.2 µM
GI50 [42]: 3.3 µM
TGI [42]: 10.6 µM
GI50 [43]: 2.88 µM
TGI [43]: 13.1 µM
GI50 [44]: 2.45 µM
TGI [44]: 12.1 µM
GI50 [45]: 2.13 µM
TGI [45]: 7.02 µM
GI50 [46]: 1.04 µM
TGI [46]: 2.55 µM
GI50 [47]: 2 µM
TGI [47]: 8.71 µM
GI50 [48]: 1.12 µM
TGI [48]: 2.75 µM
GI50 [49]: 6.08 µM
TGI [49]: 22 µM
GI50 [50]: 3.3 µM
TGI [50]: 14.1 µM
GI50 [51]: 0.0255 µM
TGI [51]: 4.38 µM
GI50 [52]: 0.941 µM
TGI [52]: 2.62 µM
GI50 [53]: 2.45 µM
TGI [53]: 6.4 µM
GI50 [54]: 2.92 µM
TGI [54]: 12.2 µM
GI50 [55]: 10.9 µM
TGI [55]: 23.2 µM
GI50 [56]: 0.598 µM
TGI [56]: 2.67 µM

Reference: PubChem BioAssay (NCI)
